Test results as given in patent publication US10874743B2, “IRAK degraders and uses thereof” (Kymera Therapeutics, Inc., priority 2017, dated 2020).

biological target: T1, IRAK4 (Homo sapiens, UniProt Q9NWZ3); assay: PBMC degradation assay (western blot, % IRAK4 degraded after 4 hours); type: cell-based; details: human PBMCs
T1 sequence (Q9NWZ3 1-460): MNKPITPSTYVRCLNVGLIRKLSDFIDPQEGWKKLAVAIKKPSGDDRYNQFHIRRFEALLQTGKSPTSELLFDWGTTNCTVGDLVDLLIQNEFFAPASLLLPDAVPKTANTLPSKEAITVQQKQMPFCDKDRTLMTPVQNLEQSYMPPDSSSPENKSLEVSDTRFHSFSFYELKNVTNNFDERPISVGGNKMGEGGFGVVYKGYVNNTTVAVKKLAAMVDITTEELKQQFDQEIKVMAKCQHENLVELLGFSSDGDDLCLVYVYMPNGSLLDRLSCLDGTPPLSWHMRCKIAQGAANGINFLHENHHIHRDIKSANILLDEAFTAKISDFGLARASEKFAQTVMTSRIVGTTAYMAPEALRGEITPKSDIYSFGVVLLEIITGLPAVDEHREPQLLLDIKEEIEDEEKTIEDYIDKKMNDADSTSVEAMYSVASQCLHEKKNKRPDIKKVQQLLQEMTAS
Experimental: Protocol summary of PBMC degradation studies from compound treatment through quantitation.
PBMC culture medium: Human peripheral blood mononuclear cells (PBMCs): RPMI+10% FBS (Heat-inactivated)+1% P/S.
Cells were cultured at a minimum of 2.5×10^6 c/mL. • PBMCs were incubated @ 37° C./5% CO2 and allowed to rest overnight. • Following overnight recovery, a cell count/viability assessment by trypan blue exclusion was performed. Cells densities were adjusted back to 2.5×10^6 c/mL (proceed with plating only if viability >80%). • In a 6 well plate, 2.0 mL of cells were added to each well for a minimum of 5×10^6 CT per treatment condition. Compounds dilutions were prepared from 20 mM stock and were added at a final 1000× dilution (0.1% DMSO concentration). • At the end of treatment, cells were harvested and spun @ 1800 rpm for 5 min. 1×PBS wash and spun again @ 1800 rpm for 5 min. Cell pellets were frozen and stored at −80° C. until further processing. • Lysates were generated by resuspending in lysis buffer. Protein quantification was performed with a BCA kit. • 20 μg of protein were loaded per lane and run on a 26-well 4-12% Bis-Tris SDS-page gel. • Transfers were performed on PVDF membranes using the BioRad Mixed MW turbo program for 7 min. • Membranes were blocked for one hour on a rocker at room temperature. • Primary antibodies were incubated overnight at 4° C. on a rocker. • Membranes were washed 3×TBST, 5 min each. • Secondaries were added and incubated for one hour on a rocker at room temperature. • Membranes were washed 3×TBST, 5 min each and rinsed well with deionized H2O. Membranes were scanned using the Licor Odessey CLx and bands were quantified using Image Studio Lite Version 5.2 software.
PBMC results at 4 hours. The letter codes indicate the percentage of IRAK4 degraded after 4 hours: A (>50% degradation), B (>20-50% degradation) and C (<20% degradation)

| SMILES | PBMC % IRAK4 Degradation |
| --- | --- |
| NC(=O)c1nn(-c2ccc(C(=O)NCCC#CC#CCCNc3cccc4c3C(=O)N(C3CCC(=O)NC3=O)C4=O)cc2)cc1NC(=O)c1coc(-c2ccnc(NCC(F)(F)F)c2)n1 (stereo not drawn) [I-179, N-[3-carbamoyl-1-[4-[8-[[2-(2,6-dioxo-3-piperidyl)-1,3-dioxo-isoindolin-4-yl]amino]octa-3,5-diynylcarbamoyl]phenyl]pyrazol-4-yl]-2-[2-(2,2,2-trifluoroethylamino)-4-pyridyl]oxazole-4-carboxamide] | C (<20% degradation) |
| NC(=O)c1nn(C2CN(C(=O)COCCOCCOCCOCCNc3cccc4c3C(=O)N(C3CCC(=O)NC3=O)C4=O)C2)cc1NC(=O)c1coc(-c2ccnc(NCC(F)(F)F)c2)n1 (stereo not drawn) [I-157] | C (<20% degradation) |
| NC(=O)c1nn(C2CCN(C(=O)COCCOCCOCCNc3cccc4c3C(=O)N(C3CCC(=O)NC3=O)C4=O)CC2)cc1NC(=O)c1coc(-c2ccnc(NCC(F)(F)F)c2)n1 (stereo not drawn) [I-152, N-[3-carbamoyl-1-[1-[2-[2-[2-[2-[[2-(2,6-dioxo-3-piperidyl)-1,3-dioxo-isoindolin-4-yl]amino]ethoxy]ethoxy]ethoxy]acetyl]-4-piperidyl]pyrazol-4-yl]-2-[2-(2,2,2-trifluoroethylamino)-4-pyridyl]oxazole-4-carboxamide] | C (<20% degradation) |
| NC(=O)c1nn(-c2ccc(C(=O)NCCOCCOCCOCCNC(=O)COc3cccc4c3C(=O)N(C3CCC(=O)NC3=O)C4=O)cc2)cc1NC(=O)c1coc(-c2ccnc(NCC(F)(F)F)c2)n1 (stereo not drawn) [I-108] | C (<20% degradation) |
| NC(=O)c1nn(-c2ccc(C(=O)NCCOCCOCCOCCOCCNc3cccc4c3C(=O)N(C3CCC(=O)NC3=O)C4=O)cc2)cc1NC(=O)c1coc(-c2ccnc(NCC(F)(F)F)c2)n1 (stereo not drawn) [I-53] | A (>50% degradation) |
| NC(=O)c1nn(-c2ccc(C(=O)NCCCCNC(=O)COc3cccc4c3C(=O)N(C3CCC(=O)NC3=O)C4=O)cc2)cc1NC(=O)c1coc(-c2ccnc(NCC(F)(F)F)c2)n1 (stereo not drawn) [I-111] | B (>20-50% degradation) |
| NC(=O)c1nn(-c2ccc(CNCCOCCOCCNc3cccc4c3C(=O)N(C3CCC(=O)NC3=O)C4=O)cc2)cc1NC(=O)c1coc(-c2ccnc(NCC(F)(F)F)c2)n1 (stereo not drawn) [I-171, N-[3-carbamoyl-1-[4-[[2-[2-[2-[[2-(2,6-dioxo-3-piperidyl)-1,3-dioxo-isoindolin-4-yl]amino]ethoxy]ethoxy]ethylamino]methyl]phenyl]pyrazol-4-yl]-2-[2-(2,2,2-trifluoroethylamino)-4-pyridyl]oxazole-4-carboxamide] | A (>50% degradation) |
| NC(=O)c1nn(-c2ccc(C(=O)NCCc3cn(CCCNc4cccc5c4C(=O)N(C4CCC(=O)NC4=O)C5=O)nn3)cc2)cc1NC(=O)c1coc(-c2ccnc(NCC(F)(F)F)c2)n1 (stereo not drawn) [I-181, N-[3-carbamoyl-1-[4-[2-[1-[3-[[2-(2,6-dioxo-3-piperidyl)-1,3-dioxo-isoindolin-4-yl]amino]propyl]triazol-4-yl]ethylcarbamoyl]phenyl]pyrazol-4-yl]-2-[2-(2,2,2-trifluoroethylamino)-4-pyridyl]oxazole-4-carboxamide] | B (>20-50% degradation) |
| NC(=O)c1nn(C2CN(C(=O)COCCOCCOCCNc3cccc4c3C(=O)N(C3CCC(=O)NC3=O)C4=O)C2)cc1NC(=O)c1coc(-c2ccnc(NCC(F)(F)F)c2)n1 (stereo not drawn) [I-158] | C (<20% degradation) |
| NC(=O)c1nn(C2CCN(C(=O)COCCOCCNc3cccc4c3C(=O)N(C3CCC(=O)NC3=O)C4=O)CC2)cc1NC(=O)c1coc(-c2ccnc(NCC(F)(F)F)c2)n1 (stereo not drawn) [I-154] | B (>20-50% degradation) |
| NC(=O)c1nn(C2CN(C(=O)COCCOCCNc3cccc4c3C(=O)N(C3CCC(=O)NC3=O)C4=O)C2)cc1NC(=O)c1coc(-c2ccnc(NCC(F)(F)F)c2)n1 (stereo not drawn) [I-156] | C (<20% degradation) |
| NC(=O)c1nn(-c2ccc(C(=O)NCc3cn(CCCNc4cccc5c4C(=O)N(C4CCC(=O)NC4=O)C5=O)nn3)cc2)cc1NC(=O)c1coc(-c2ccnc(NCC(F)(F)F)c2)n1 (stereo not drawn) [I-180, N-[3-carbamoyl-1-[4-[[1-[3-[[2-(2,6-dioxo-3-piperidyl)-1,3-dioxo-isoindolin-4-yl]amino]propyl]triazol-4-yl]methylcarbamoyl]phenyl]pyrazol-4-yl]-2-[2-(2,2,2-trifluoroethylamino)-4-pyridyl]oxazole-4-carboxamide] | A (>50% degradation) |
| NC(=O)c1nn(-c2ccc(C(=O)NCCOCCOCCNc3cccc4c3CN(C3CCC(=O)NC3=O)C4=O)cc2)cc1NC(=O)c1coc(-c2ccnc(NCC(F)(F)F)c2)n1 (stereo not drawn) [I-117, N-(3-carbamoyl-1-(4-((2-(2-(2-((2-(2,6-dioxopiperidin-3-yl)-1-oxoisoindolin-4-yl)amino)ethoxy)ethoxy)ethyl)carbamoyl)phenyl)-1H-pyrazol-4-yl)-2-(2-((2,2,2-trifluoroethyl)amino)pyridin-4-yl)oxazole-4-carboxamide] | A (>50% degradation) |
| NC(=O)c1nn(-c2ccc(C(=O)NCCOCCCCCOCCNC(=O)COc3cccc4c3C(=O)N(C3CCC(=O)NC3=O)C4=O)cc2)cc1NC(=O)c1coc(-c2ccnc(NCC(F)(F)F)c2)n1 (stereo not drawn) [I-116, N-(3-carbamoyl-1-(4-((2-((5-(2-(2-((2-(2,6-dioxopiperidin-3-yl)-1,3-dioxoisoindolin-4-yl)oxy)acetamido)ethoxy)pentyl)oxy)ethyl)carbamoyl)phenyl)-1H-pyrazol-4-yl)-2-(2-((2,2,2-trifluoroethyl)amino)pyridin-4-yl)oxazole-4-carboxamide] | A (>50% degradation) |
| NC(=O)c1nn(C2CCN(C(=O)NCCOCCOCCNc3cccc4c3C(=O)N(C3CCC(=O)NC3=O)C4=O)CC2)cc1NC(=O)c1coc(-c2ccnc(NCC(F)(F)F)c2)n1 (stereo not drawn) [I-145, N-[3-carbamoyl-1-[1-[2-[2-[2-[[2-(2,6-dioxo-3-piperidyl)-1,3-dioxo-isoindolin-4-yl]amino]ethoxy]ethoxy]ethylcarbamoyl]-4-piperidyl]pyrazol-4-yl]-2-[2-(2,2,2-trifluoroethylamino)-4-pyridyl]oxazole-4-carboxamide] | C (<20% degradation) |
| NC(=O)c1nn(-c2ccc(C(=O)NCCCCCNC(=O)COc3cccc4c3C(=O)N(C3CCC(=O)NC3=O)C4=O)cc2)cc1NC(=O)c1coc(-c2ccnc(NCC(F)(F)F)c2)n1 (stereo not drawn) [I-106, N-[3-carbamoyl-1-[4-[5-[[2-[2-(2,6-dioxo-3-piperidyl)-1,3-dioxo-isoindolin-4-yl]oxyacetyl]amino]pentylcarbamoyl]phenyl]pyrazol-4-yl]-2-[2-(2,2,2-trifluoroethylamino)-4-pyridyl]oxazole-4-carboxamide] | A (>50% degradation) |
| O=C1CCC(N2C(=O)c3cccc(NCCOCCOCCNCc4ccc(-n5cc(NC(=O)c6coc(-c7ccnc(NCC8CC8)c7)n6)c(C(F)(F)F)n5)cc4)c3C2=O)C(=O)N1 (stereo not drawn) [I-185, 3-2-(2-((Cyclopropylmethyl)amino)pyridin-4-yl)-N-(1-(4-(((2-(2-(2-((2-(2,6-dioxopiperidin-3-yl)-1,3-dioxoisoindolin-4-yl)amino)ethoxy)ethoxy)ethyl)amino)methyl)phenyl)-3-(trifluoromethyl)-1H-pyrazol-4-yl)oxazole-4-carboxamide] | A (>50% degradation) |
| CN(CCOCCOCCNc1cccc2c1C(=O)N(C1CCC(=O)NC1=O)C2=O)C(=O)c1ccc(-n2cc(NC(=O)c3coc(-c4ccnc(NCC(F)(F)F)c4)n3)c(C(N)=O)n2)cc1 (stereo not drawn) [I-159, N-[3-carbamoyl-1-[4-[2-[2-[2-[[2-(2,6-dioxo-3-piperidyl)-1,3-dioxo-isoindolin-4-yl]amino]ethoxy]ethoxy]ethyl-methyl-carbamoyl]phenyl]pyrazol-4-yl]-2-[2-(2,2,2-trifluoroethylamino)-4-pyridyl]oxazole-4-carboxamide] | A (>50% degradation) |
